# According to patent EP3925949A1, “AZIDO COMPOUNDS AND METHOD FOR MONITORING ACID CERAMIDASE ACTIVITY IN INTACT CELLS USING THEM” (Consejo Superior de Investigaciones Científicas (CSIC), priority 2020, dated 2021):
# Molecular target: T1, ACER2 (Homo sapiens, UniProt Q5QJU3)
# T1 construct: expressed in transfected cells; host or cells: HeLa T-Rex ACER2-TET-ON, tetracycline-induced; microsomes
# Assay: Hydrolysis of RBM5-177 by microsomes of ACER2 overexpressing cells, UPLC-HRMS
# Type: biochemical
# Conditions: microsomes from ACER2 overexpressing cells, RBM5-177 5 µM, 30 min
# Protocol: Cell lysates obtained from HeLa T-Rex ACER1-TET-ON, HeLa T-Rex ACER2-TET-ON and MEF5 overexpressing ACER3 cells were transferred to ultracentrifuge tubes and were spun at 100000 g for 1 h at 4°C. Pellets were resuspended in a 0.25 M saccharose solution and protein concentration was determined as specified below.
# Cells were seeded at 5 × 10^5 cells/mL into 6 well plates (1 mL/well) and were allowed to adhere for 24 h. Medium was replaced with fresh medium containing RBM5-177, RBM5-019 or RBM2-37 (5 µM final concentration). After 30 min, medium was removed; cells were washed with 400 µL PBS and harvested with 400 µL Trypsin-EDTA and 600 µL of medium. NC recombinant enzyme, lysates from A375-AC overexpressing cells, MEF5 or microsomes from HeLa T-Rex ACER1-TET-ON and HeLa T-Rex […] activity buffer. Cell pellets were resuspended with 100 µL of H2O and mixed with 750 µL of methanol: chloroform, 2:1. Samples were heated at 48°C overnight and next day, 75 µL of 1 M KOH in methanol were added, followed by 2 h incubation at 37°C. Afterwards, the saponification was neutralised with 75 µL of 1 M acetic acid and solvent was removed using a Speed Vac Savant SPD131 DDA (Thermo Scientific). […]
structure (smiles),measurement,value
"CCCCCCCC(=O)N[C@@H](C)[C@H](O)CCCCCCCCCCCCN=[N+]=[N-] [RBM5-177, N-((2S,3R)-15-azido-3-hydroxypentadecan-2-yl)octanamide]",RBM5-19 formation (hydrolysis as substrate),transformed into the free amine only by AC
